Assay results from patent US20120100989A1, “3-Aryl-4-(2-thienylmethylene)isoxazol-5(4H)-ones as Fungicides” (Bayer CropScience AG, priority 2010, published 2012).

Columns and labels:
[1] = tested on: caterpillars of the armyworm (Spodoptera frugiperda); assay: Spodoptera frugiperda test (spray treatment); format: in vivo; details: maize leaf discs, application rate 500 g/ha
Procedure: Example J Spodoptera Frugiperda Test (Spray Treatment) [table] To produce a suitable preparation of active compound, 1 part by weight of active compound is mixed with the stated amounts of solvent and emulsifier, and the concentrate is diluted with emulsifier-containing water to the desired concentration. Discs of maize leaves (Zea mays) are sprayed with an active compound preparation of the desired concentration and, after drying, populated with caterpillars of the armyworm (Spodoptera frugiperda). After the desired period of time, the effect in % is determined. 100% means that all caterpillars have been killed; 0% means that none of the caterpillars have been killed.

[2] = log P by HPLC on reversed-phase columns (C 18), EEC directive 79/831 Annex V.A8; format: physicochemical; details: for log P: pH 2.7; for chromatographic logP: reversed-phase C18 HPLC column, preparation examples, HPLC, acidic range pH 2.7, formic acid, read-out: log P (HCOOH)
Procedure: The log P values were measured according to EEC directive 79/831 Annex V.A8 by HPLC (High Performance Liquid Chromatography) on reversed-phase columns (C 18), using the method below:
The determination was carried out in the acidic range at pH 2.7 using the mobile phases 0.1% aqueous formic acid and acetonitrile; linear gradient from 10% acetonitrile to 95% acetonitrile.

log P [2]	chromatographic logP [2]	SMILES	activity (caterpillars killed) [1] [%]
3.34		Cc1ccc(C=C2C(=O)ON=C2c2ccc(F)cc2)s1 [I-33]	80
3.44		O=C1ON=C(c2ccc(Cl)cc2)C1=Cc1cccs1 [I-5]	80
3.76		O=C1ON=C(c2ccc(F)cc2)C1=Cc1cc(Br)cs1 [I-30]	80
3.68		O=C1ON=C(c2ccc(C(F)(F)F)cc2)C1=Cc1cccs1 [I-56]	80
3.67		Cc1ccc(C2=NOC(=O)C2=Cc2ccc(C)s2)cc1 [U-10]	80
3.32		Cc1ccc(C2=NOC(=O)C2=Cc2cccs2)cc1 [U-2]	80
3.28		COc1ccc(C2=NOC(=O)C2=Cc2ccc(C)s2)cc1 [U-9]	80
		O=C1ON=C(c2ccccc2)C1=Cc1cccs1 [U-1]	80
3.70		COc1ccc(C2=NOC(=O)C2=Cc2ccc(Cl)s2)cc1 [I-43]	80
3.80		O=C1ON=C(c2ccc(OC(F)(F)F)cc2)C1=Cc1cccs1 [I-55]	80
3.26		Cc1ccsc1C=C1C(=O)ON=C1c1ccc(F)cc1 [I-32]	80
3.20		COCc1ccsc1C=C1C(=O)ON=C1c1ccccc1Cl [I-20]	
3.41		CCOc1ccc(C2=NOC(=O)C2=Cc2cccs2)cc1 [I-58]	80
3.61		CCOc1ccc(C2=NOC(=O)C2=Cc2sccc2C)cc1 [I-82]	
	4.7	Cc1ccc(/C=C2\C(=O)ON=C2c2ccc(C(C)(C)C)cc2)s1 [I-27, 3-(4-tert-butylphenyl)-4-(2-(5-methylthienyl)methylene)isoxazol-5(4H)-one]	
3.57		Cc1ccc(C2=NOC(=O)C2=Cc2sccc2C)cc1 [U-8]	
3.85		Cc1ccc(C2=NOC(=O)C2=Cc2sccc2C)c(C)c1 [I-97]	
4.05		Cc1ccc(C2=NOC(=O)C2=Cc2ccc(Cl)s2)cc1 [I-42]	
3.18		COc1ccc(C2=NOC(=O)C2=Cc2sccc2C)cc1 [U-11]	
2.81		COc1ccc(C2=NOC(=O)C2=Cc2sccc2C)c(OC)c1 [U-27]	
2.95		COc1ccc(C2=NOC(=O)/C2=C\c2cccs2)cc1 [U-38]	80
	3.74	COc1cccc(C2=NOC(=O)/C2=C\c2ccc(Cl)s2)c1 [I-37, 3-(3-methoxyphenyl)-4-(2-(5-chlorothienyl)methylene)isoxazol-5(4H)-one]	
	4.03	COc1cccc(C2=NOC(=O)C2)c1 [3-(3-methoxyphenyl)isoxazol-5(4H)-one]	
3.73		Cc1ccc(C2=NOC(=O)C2=Cc2cccs2)cc1C [I-92]	
5.13		CC(C)(C)c1ccc(C2=NOC(=O)C2=Cc2ccc(Br)s2)cc1 [I-93]	
3.64		O=C1ON=C(c2cc(Cl)ccc2Cl)C1=Cc1cccs1 [I-35]	

log P [2]	chromatographic logP [2]	SMILES	activity (caterpillars killed) [1] [%]
3.50		O=C1ON=C(c2cc(F)ccc2Cl)C1=Cc1ccc([N+](=O)[O-])s1 [I-133]	
2.97		COc1cccc(C2=NOC(=O)C2=Cc2cccs2)c1OC [U-30]	
3.25		CCOc1ccccc1C1=NOC(=O)C1=Cc1cccs1 [I-119]	
3.59		CSc1ccsc1C=C1C(=O)ON=C1c1ccccc1Cl [I-16]	
3.35		Cc1ccc(/C=C2\C(=O)ON=C2c2ccccc2)s1 [U-42]	
2.75		COc1ccccc1C1=NOC(=O)/C1=C\c1cccs1 [U-39]	80
3.32		O=C1ON=C(c2ccc(F)cc2)C1=Cc1ccc([N+](=O)[O-])s1 [I-54]	
2.91		O=C1ON=C(c2ccccc2)C1=Cc1cccs1 [U-33]	
4.31		Cc1c(C=C2C(=O)ON=C2c2ccccc2Cl)sc2ccccc12 [I-140]	
4.17		O=C1ON=C(c2ccc(Cl)cc2)C1=Cc1ccc(Cl)s1 [I-46]	
3.76		O=C1ON=C(c2ccccc2)C1=Cc1ccc(Cl)s1 [I-105]	
3.61		O=C1ON=C(c2cccc(C(F)(F)F)c2)C1=Cc1cccs1 [I-57]	
3.31		Cc1ccsc1C=C1C(=O)ON=C1c1cccc(F)c1 [I-102]	
4.88		O=C1ON=C(c2ccc(-c3ccccc3)cc2)C1=Cc1ccc(Br)s1 [I-75]	
3.73		CC(C)Oc1ccc(C2=NOC(=O)C2=Cc2cccs2)cc1 [I-79]	80
4.03		Cc1cc(C)cc(C2=NOC(=O)C2=Cc2sccc2C)c1 [I-88]	
3.18		Cc1ccsc1C=C1C(=O)ON=C1c1ccccc1 [U-29]	
4.84		Cc1ccc(C2=NOC(=O)C2=Cc2cc(Br)c(Br)s2)cc1 [I-64]	
3.35		O=C1ON=C(c2ccccc2[N+](=O)[O-])C1=Cc1ccc(Br)s1 [I-134]	
3.84		O=C1ON=C(c2cc(F)ccc2F)C1=Cc1ccc(Cl)s1 [I-139]	
3.69		O=C1ON=C(c2ccccc2)C1=Cc1sccc1Br [I-109]	
3.27		Cc1ccc(C=C2C(=O)ON=C2c2ccccc2)s1 [U-3]	
2.95		COc1ccc(C2=NOC(=O)C2=Cc2cccs2)cc1 [U-37]	80
3.87		CCc1sc(C=C2C(=O)ON=C2c2ccccc2Cl)cc1Br [I-10]	
2.69		O=C1ON=C(c2ccccc2[N+](=O)[O-])C1=Cc1cccs1 [I-120]	
2.97		O=C1ON=C(c2c(F)cccc2F)C1=Cc1cccs1 [I-59]	

log P [2]	chromatographic logP [2]	SMILES	activity (caterpillars killed) [1] [%]
	3.1	CC(C)(C)c1ccc(C2=NOC(=O)C2)cc1 [3-(4-tert-butylphenyl)isoxazol-5(4H)-one]	
3.38		Cc1ccsc1C=C1C(=O)ON=C1c1ccccc1Cl [I-18]	
4.39		CC(C)(C)c1ccc(C2=NOC(=O)C2=Cc2cccs2)cc1 [I-29]	80
3.38		COc1cccc(C2=NOC(=O)C2=Cc2ccc([N+](=O)[O-])s2)c1 [U-15]	
3.21		COc1ccc(F)cc1C1=NOC(=O)C1=Cc1sccc1C [U-32]	
3.17		COc1ccc(C2=NOC(=O)C2=Cc2sccc2C)cc1OC [U-26]	
4.45		COc1ccc(C2=NOC(=O)C2=Cc2cc(Br)c(Br)s2)cc1 [I-44]	
4.63		Cc1c(C=C2C(=O)ON=C2c2ccc(Cl)cc2)sc2ccccc12 [I-144]	
3.17		Cc1ccsc1C=C1C(=O)ON=C1c1c(F)cccc1F [I-73]	
3.34		COc1cccc(C2=NOC(=O)C2=Cc2ccc(C)s2)c1 [U-12]	80
3.71		COc1ccc(C2=NOC(=O)C2=Cc2cc(Br)cs2)cc1 [U-16]	
3.25		Cc1ccc(C=C2C(=O)ON=C2c2c(F)cccc2F)s1 [I-78]	
	2.44	O=C1CC(c2ccc(Cl)cc2Cl)=NO1 [3-(2,4-dichlorophenyl)isoxazol-5(4H)-one]	
3.71		O=C1ON=C(c2ccccc2)C1=Cc1ccc(Br)s1 [I-1]	
3.01		COc1ccc(C2=NOC(=O)C2=Cc2cccs2)cc1OC [U-19]	
2.79		COc1cccc(OC)c1C1=NOC(=O)C1=Cc1cccs1 [U-22]	
3.77		COc1ccc(C2=NOC(=O)C2=Cc2ccc(Br)s2)cc1 [I-49]	
6.31		COc1ccc(C2=NOC(=O)C2=Cc2ccc([N+](=O)[O-])s2)cc1 [U-17]	
4.64		O=C1ON=C(c2ccccc2Cl)C1=Cc1cc(Br)c(Br)s1 [I-17]	
3.43		O=C1ON=C(c2ccccc2OC(F)(F)F)C1=Cc1cccs1 [I-121]	
2.98		Cc1ccccc1C1=NOC(=O)C1=Cc1cccs1 [I-23]	
3.03		O=C1ON=C(c2ccc([N+](=O)[O-])cc2)/C1=C/c1cccs1 [U-40]	
3.20		COc1cc(OC)cc(C2=NOC(=O)C2=Cc2cccs2)c1 [U-21]	
4.44		CCOc1ccccc1C1=NOC(=O)C1=Cc1cc(-c2ccccc2)cs1 [I-112]	
3.89		Cc1ccsc1C=C1C(=O)ON=C1c1ccccc1OCc1ccccc1 [I-116]	

SMILES	log P [2]	chromatographic logP [2]	activity (caterpillars killed) [1] [%]
O=C1ON=C(c2ccccc2F)C1=Cc1cccs1 [I-22]	2.95		
O=C1ON=C(c2cccc(Cl)c2Cl)C1=Cc1cccs1 [I-99]	3.62		
Cc1ccc(C)c(C2=NOC(=O)C2=Cc2cccs2)c1 [I-98]	3.62		
